Holding throughout (assay type): cell-based
Assay [1] deals with Klebsiella. As to the kind of experiment: Agar dilution MIC, Klebsiella. The following applies: Klebsiella. The text has this: (§1) A typical and preferred compound provided by this invention is 7-(2-naphthylglycylamido)-3-methyl-3-cephem-4-carboxylic acid, the compound of Example 3. The antibacterial activity of this compound and several others of the invention has been determined in standard in vitro agar dilution assays against a variety of gram positive microorganisms. The following Tables present typical minimum inhibitory concentrations (MIC's) in μg/ml for the compounds when evaluated against the indicated microorganisms. MIC's for several known compounds are also presented for comparison.

Assay [2] relates to B. Fragilis. The assay is described as follows: Expanded spectrum MIC, B. Fragilis. The following applies: Bacteroides fragilis, Table III, read-out: MIC.
Description: as §1

The subject of assay [3] is Staph. epi. As to the kind of experiment: Agar dilution MIC, Staph. epi. The text has this:
(§2) The following Tables present typical minimum inhibitory concentrations (MIC's) in μg/ml for the compounds when evaluated against the indicated microorganisms.
In general terms: In agar dilution the substance is mixed into plates at graded concentrations.

Assay [4] relates to Staph. aureus. As to the kind of experiment: Agar dilution MIC, Staph. aureus. The following applies: Staphylococcus aureus.
Description: as §2

The subject of assay [5] is Strep. A. The assay is described as follows: Agar dilution MIC, Strep. A.
Description: as §1

Assay [6] deals with Strep. PN. The assay is described as follows: Agar dilution MIC, Strep. PN. The following applies: Table I, strain PARK; read-out: MIC.
Description: as §2

Assay [7] deals with H. influ. The assay is described as follows: Agar dilution MIC, H. influenza. To be noted: read-out: MIC.
Description: as §2

[8] abbreviates: Table I, strain EPI1, read-out: MIC.

≈ marks a conversion by molar mass, not a printed value. Where a name gives a salt, the structure may show the parent alone. Read-outs that look alike come from different tables or passages of the source. Where only a bound is given, the exact number is not on record here.

Regarding `CC1=C(C(=O)O)N2C(=O)[C@@H](NC(=O)[C@H](N)c3ccccc3)[C@H]2SC1` [Cephalexin, reference compound], the MIC is 4 µg/mL (≈ 11.5 µM) in assay [1]; 16 µg/mL (≈ 46.1 µM) in assay [2] (strain 180-821); greater than 64 µg/mL in assay [2] (strain 10668); greater than 64 µg/mL in assay [2] (strain 10683); 64 µg/mL (≈ 184 µM) in assay [2] (strain 10695); 64 µg/mL (≈ 184 µM) in assay [2] (strain 10750). In addition, the MIC is greater than 64 µg/mL in assay [2] (strain 10774); 16 µg/mL (≈ 46.1 µM) in assay [2] (strain 10817); 16 µg/mL (≈ 46.1 µM) in assay [2] (strain 10837); 32 µg/mL (≈ 92.1 µM) in assay [2] (strain 107266); 16 µg/mL (≈ 46.1 µM) in assay [2] (strain 107268); 8 µg/mL (≈ 23 µM) in assay [3]. In addition, the MIC in assay [3] (setting [8]) amounted to 32 µg/mL (≈ 92.1 µM); in assay [4] (Table I, strain S13E) it was 128 µg/mL (≈ 368 µM); in assay [4] (Table III expanded spectrum, strain 8725, read-out: MIC), 2 µg/mL (≈ 5.76 µM); in assay [4] (Table III, strain 8438, read-out: MIC), 1 µg/mL (≈ 2.88 µM); in assay [4] (Table III, strain 8787, read-out: MIC), 1 µg/mL (≈ 2.88 µM); in assay [4] (Table III, strain 9050, read-out: MIC), 2 µg/mL (≈ 5.76 µM). Moreover, the MIC is 2 µg/mL (≈ 5.76 µM) in assay [4] (Table III, strain 9136, read-out: MIC); 0.5 µg/mL (≈ 1.44 µM) in assay [5]; 2 µg/mL (≈ 5.76 µM) in assay [6]; 8 µg/mL (≈ 23 µM) in assay [7] (Table I, strain 251); 8 µg/mL (≈ 23 µM) in assay [7] (Table I, strain BRUN); 8 µg/mL (≈ 23 µM) in assay [7] (Table III, strain 101). Further, the MIC in assay [7] (Table III, strain 102) came to 16 µg/mL (≈ 46.1 µM); in assay [7] (Table III, strain 103) it was 16 µg/mL (≈ 46.1 µM); in assay [7] (Table III, strain 104), 16 µg/mL (≈ 46.1 µM); in assay [7] (Table III, strain 105), 4 µg/mL (≈ 11.5 µM); in assay [7] (Table III, strain 106) it was 8 µg/mL (≈ 23 µM); in assay [7] (Table III, strain 107) it was 8 µg/mL (≈ 23 µM). Further, the MIC in assay [7] (Table III, strain 108) turned out to be 8 µg/mL (≈ 23 µM); in assay [7] (Table III, strain 109), 16 µg/mL (≈ 46.1 µM); in assay [7] (Table III, strain 110), 8 µg/mL (≈ 23 µM); in assay [7] (Table III, strain 111) it was 16 µg/mL (≈ 46.1 µM).

On to `N[C@@H](C(=O)NC1C(=O)N2C(C(=O)O)=CCSC12)c1ccc2ccccc2c1` (stereo partly drawn) [Example 12, D-7-(2-Naphthylglycylamido)-3-cephem-4-carboxylic acid trifluoroacetate], for which the MIC in assay [1] (Table I, strain X26, read-out: MIC) stood at 16 µg/mL; in assay [3] (Table I, strain 222, read-out: MIC), 4 µg/mL; in assay [3] (setting [8]), 32 µg/mL; in assay [4], 4 µg/mL; in assay [4] (Table I, strain S13E), 64 µg/mL; in assay [4] (Table I, strain V41, read-out: MIC) it was 64 µg/mL. Moreover, the MIC in assay [5] (Table I, strain C203, read-out: MIC) was 0.5 µg/mL; in assay [6], 1 µg/mL; in assay [7] (Table I, strain 251), 16 µg/mL; in assay [7] (Table I, strain BRUN), 64 µg/mL.
